Reference: PMC9854762, “Antibiofilm and Anti-Quorum-Sensing Activities of Novel Pyrazole and Pyrazolo[1,5-a]pyrimidine Derivatives as Carbonic Anhydrase I and II Inhibitors: Design, Synthesis, Radiosterilization, and Molecular Docking Studies” (Antibiotics, 2023)
Values after ≈ are worked out from the molar mass of the structure shown. Values joined by “and” are separate entries in the source; they are usually repeats but may differ in a detail not shown here. Identical values can stand only once.

What was measured:
tested isolates = test: Broth microdilution MIC/MBC, summary; format: cell-based
Method: (§1) The broth microdilution method was taken as a basis to detect the MICs of pyrazole compounds against tested clinical isolates, according to the Clinical Laboratory and Standards Institute guidelines. The broth cultures were used to prepare the bacterial inoculums, and the suspensions were adjusted to the standard 0.5 McFarland turbidity. Stock solutions of the synthesized pyrazoles were prepared in pure DMSO and further serially diluted with TS broth in the concentration range from 128 µg/mL to 0.0625 µg/mL. A well containing noninoculated TS broth, free of any antimicrobial agents, was also included to ensure the medium sterility, while Erythromycin and Amikacin served as positive controls. Bacterial growth was determined by adding 20 µL of 0.5% TTC (2,3,5-triphenyltetrazolium chloride) aqueous solution. […] All experiments were repeated three times. The bactericidal effect from each concentration of the pyrazole and pyrazolo[1,5-a]pyrimidine derivatives showing growth inhibition was further studied. For this study, a loopful of 5 µL was taken from each no-visible growth tube and streaked onto plates of TS agar.

S. aureus biofilm = test: Crystal violet biofilm inhibition assay; format: cell-based; conditions: compounds at their MICs, crystal violet OD570
Method: (§2) The microtiter plate method was used to evaluate the active pyrazoles’ inhibitory activities on the strong biofilm-forming bacterial strains. This method was carried out as described, with some modifications. The antibiofilm effects of tested pyrazoles are presented as a percentage change from untreated bacterial controls. Overnight cultures of micro-organisms in the TSB medium with 10% (wt/vol) glucose were prepared as 10^8 CFU/mL, and then 100 µL was dispensed into each test well. Then, 100 µL of different concentrations of compounds, at their MICs, were dispensed into each well. The negative control contained only TSB, whereas the positive control contained cell cultures without compound addition. The supernatant was decanted and each well gently rinsed three times with 300 µL of sterile distilled water and discarded after incubation at 37 °C for 48 h. The plates were dried with air for 40 min. They were stained with 0.1% (wt/vol) crystal violet at room temperature for 30 min and washed three times with sterile distilled water. Afterward, the crystal violet was solubilized in 95% ethanol, and the absorbance was read in a microplate reader (MicroplatePhotometer and Multiskan FC) at 570 nm. This test was performed in triplicate, and the mean was taken as an average of three readings. The percentage of biofilm inhibition was calculated according to Equation (1):(1) Biofilm eradication %=OD positivecontrol−OD sample /OD positive control×100

P. aeruginosa biofilm = test: Crystal violet biofilm inhibition assay; format: cell-based; conditions: compounds at their MICs, crystal violet OD570
Method: as §2

A. baumannii DH-243 = test: Broth microdilution MIC/MBC; format: cell-based, Acinetobacter baumannii; conditions: for MIC: Acinetobacter baumannii, DH243, 24 h, read-out: MIC (Mean ± SEM); for MBC/MIC: value in brackets
Method: as §1

P. aeruginosa DH-5698 = test: Agar well-diffusion assay; format: cell-based, Pseudomonus aeruginosa; conditions: Pseudomonas aeruginosa, DH5698; P. aeruginosa DH-5698; 50 µL of 10 mM per well; read-out: Diameter of Inhibition Zones (AZOI)
Method: The synthesized compounds were initially screened for their in vitro antibacterial activity against the different Gram-positive and Gram-negative bacteria, tested using the agar well-diffusion assay. The turbidity of the bacterial suspensions was established to the 0.5 McFarland turbidity standard. The activity was performed on TS agar plates. The bacteria were spread on the surface of the agar plates, and 10 mm wells were screwed into the agar plates. The assay was performed under aseptic conditions. An aliquot of 50 µL of each tested compound (10 mM) was added to the wells, and the plates were incubated overnight at 37 °C. Both Erythromycin and Amikacin antibiotic disks were used as positive control, while DMSO solvent was used as a negative control in this study. The diameters of inhibition zones were measured and recorded in mm. A comparative study of the synthesized compounds was determined. The experiment was performed in triplicates.

E. coli DH-5987 = test: Broth microdilution MIC/MBC; format: cell-based, Escherichia coli; conditions: for MBC/MIC / MIC / MIC (Mean ± SEM): E. coli DH-5987; for MBC/MIC: value in brackets; for MIC / MBC: Escherichia coli, DH5987; for MIC / MIC (Mean ± SEM): 24 h; for MIC: read-out: MIC (Mean ± SEM); for MBC: E. coli
Method: as §1

Gram-positive isolates = test: Broth microdilution MIC/MBC, summary; format: cell-based
Method: as §1

Gram-negative isolates = test: Broth microdilution MIC/MBC, summary; format: cell-based
Method: as §1

SMILES	MIC (tested isolates; other isolates (not S. aureus, E. coli))	Biofilm Eradication % (S. aureus biofilm)	Biofilm Eradication % (P. aeruginosa biofilm)	MIC (A. baumannii DH-243)	MBC/MIC (A. baumannii DH-243)	zone of inhibition at 10000 µM (P. aeruginosa DH-5698)	MBC/MIC (E. coli DH-5987)	MIC (E. coli DH-5987)	MBC (Gram-positive isolates)	MIC (Gram-positive isolates)	MIC (Mean ± SEM) (E. coli DH-5987)	MBC (E. coli DH-5987)	MIC (tested isolates; S. aureus, E. faecalis, and P. aeruginosa)	MIC (Gram-negative isolates)
CCOC(=O)c1ccc(N=Nc2c(N=Cc3ccc(N(C)C)cc3)n[nH]c2N)cc1 [Compound 5a, Ethyl 4-((5-amino-3-((4-(dimethylamino)benzylidene)amino)-1H-pyrazol-4-yl)diazenyl)benzoate]	0.5 µg/mL (≈ 1.23 µM)	69% and 69 ± 0.24%	63% and 63 ± 0.52%	0.5 ± 0.3 µg/mL (≈ 1.23 µM)	0.5	28.3 mm	0.5	0.25 µg/mL (≈ 0.617 µM)	–	–	–	–	–	–
CCOC(=O)c1ccc(N=Nc2c(N)nn3c(N)c(C#N)c(-c4ccc(N(C)C)cc4)nc23)cc1 [Compound 9a, Ethyl-4-((2,7-diamino-6-cyano-5-(4-(dimethylamino)phenyl)pyrazolo[1,5-a]pyrimidin-3-yl)diazenyl)benzoate]	–	72% and 72 ± 0.81%	66% and 66 ± 0.9%	0.375 ± 0.2 µg/mL (≈ 0.799 µM)	0.5	28.5 mm	0.5	0.125 µg/mL (≈ 0.266 µM)	0.125 to 0.25 µg/mL (≈ 0.266 to 0.532 µM)	0.25 to 0.5 µg/mL (≈ 0.532 to 1.06 µM)	0.125 ± 0.1 µg/mL (≈ 0.266 µM)	0.0625 µg/mL (≈ 0.133 µM)	–	–
CCOC(=O)c1ccc(N=Nc2c(N)nn3c(C)cc(C)nc23)cc1 [Compound 6, ethyl-4-((2-amino-5,7-dimethylpyrazolo[1,5-a]pyrimidin-3-yl)diazenyl)benzoate]	–	80% and 80 ± 0.63%	76% and 76 ± 0.52%	0.5 ± 0.1 µg/mL (≈ 1.48 µM)	0.5	28.8 mm	0.5	0.25 ± 0.1 µg/mL (≈ 0.739 µM)	–	–	–	–	0.187 to 0.375 µg/mL (≈ 0.553 to 1.11 µM)	–
CCOC(=O)c1ccc(N=Nc2c(N)n[nH]c2N)cc1 [Compound 3a, Ethyl 4-((3,5-diamino-1H-pyrazol-4-yl)diazenyl)benzoate]	–	–	88% and > 80%	0.25 ± 0.2 µg/mL (≈ 0.911 µM)	0.5	30.8 mm	0.5	0.0625 ± 0.4 µg/mL (≈ 0.228 µM)	–	0.125 µg/mL (≈ 0.456 µM)	–	–	–	0.062 to 0.25 µg/mL (≈ 0.226 to 0.911 µM)
CCOC(=O)c1ccc(N=Nc2c(N)nn3c(O)c(C#N)c(-c4ccc(N(C)C)cc4)nc23)cc1 [Compound 10a, Ethyl-4-((2-amino-6-cyano-5-(4-(dimethylamino)phenyl)-7-hydroxypyrazolo[1,5-a]pyrimidin-3-yl)diazenyl)benzoate]	–	–	80% and > 80%	0.375 ± 0.4 µg/mL (≈ 0.797 µM)	0.5	30.1 mm	–	0.125 µg/mL (≈ 0.266 µM)	–	–	0.125 ± 0.2 µg/mL (≈ 0.266 µM)	0.0625 µg/mL (≈ 0.133 µM)	–	–
